From patent US9556153B1, “JAK1 inhibitors” (Eli Lilly and Company, priority 2015, dated 2017)

What was measured:
JAK3 = target: T1, JAK3 (Homo sapiens, UniProt P52333); assay: JAK LanthaScreen Kinase Assay (TR-FRET), JAK3 in vitro enzyme assay; type: biochemical; conditions: ATP 20.0 μM; n=6
T1 construct: purchased Invitrogen
T1 sequence (P52333 1-1124): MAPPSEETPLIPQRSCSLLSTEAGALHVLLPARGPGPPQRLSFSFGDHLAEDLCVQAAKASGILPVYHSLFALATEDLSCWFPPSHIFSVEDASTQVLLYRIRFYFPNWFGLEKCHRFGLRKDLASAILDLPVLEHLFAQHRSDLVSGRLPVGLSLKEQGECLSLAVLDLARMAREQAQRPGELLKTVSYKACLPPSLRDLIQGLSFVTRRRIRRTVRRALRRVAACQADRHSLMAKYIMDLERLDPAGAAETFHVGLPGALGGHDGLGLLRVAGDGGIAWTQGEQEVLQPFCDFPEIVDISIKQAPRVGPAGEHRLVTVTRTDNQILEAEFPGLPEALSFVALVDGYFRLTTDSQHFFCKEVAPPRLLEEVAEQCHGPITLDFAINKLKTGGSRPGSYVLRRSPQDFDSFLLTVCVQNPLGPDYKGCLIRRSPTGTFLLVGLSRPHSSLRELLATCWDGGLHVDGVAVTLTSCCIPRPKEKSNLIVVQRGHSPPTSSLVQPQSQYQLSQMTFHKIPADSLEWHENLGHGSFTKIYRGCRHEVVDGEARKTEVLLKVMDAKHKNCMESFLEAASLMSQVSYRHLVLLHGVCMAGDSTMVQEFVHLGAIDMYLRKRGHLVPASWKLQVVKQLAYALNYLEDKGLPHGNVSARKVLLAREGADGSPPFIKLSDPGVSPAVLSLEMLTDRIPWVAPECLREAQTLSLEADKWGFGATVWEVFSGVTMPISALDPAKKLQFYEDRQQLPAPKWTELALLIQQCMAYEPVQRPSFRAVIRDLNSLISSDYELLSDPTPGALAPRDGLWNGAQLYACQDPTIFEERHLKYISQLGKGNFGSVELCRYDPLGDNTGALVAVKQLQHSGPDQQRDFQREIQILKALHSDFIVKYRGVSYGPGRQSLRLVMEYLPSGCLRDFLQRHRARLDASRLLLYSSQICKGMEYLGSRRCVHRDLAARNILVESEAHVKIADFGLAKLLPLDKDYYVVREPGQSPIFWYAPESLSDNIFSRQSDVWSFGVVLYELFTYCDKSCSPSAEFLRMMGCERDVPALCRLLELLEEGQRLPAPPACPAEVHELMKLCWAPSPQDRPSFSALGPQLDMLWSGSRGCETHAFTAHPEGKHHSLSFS
Excerpt: JAK1, JAK2 and JAK3 In Vitro Enzyme Assays
The JAK LanthaScreen™ Kinase Assay (Invitrogen) is used to determine the ability of test compounds to inhibit JAK1, JAK2 and JAK3 kinase activity. These are TR-FRET assay formats that use long-lifetime terbium labeled antibody as the donor species and GFP-STAT1 as the acceptor species. Use the TR-FRET ratio to monitor JAK kinase activity where an increase in phosphorylation of the GFP-STAT1 results in an increase in the TR-FRET ratio. Perform the kinase reaction using a 12.5 μl reaction volume in shallow black 384-well Proxiplate. Add reagents to obtain final reaction conditions of […] HEPES pH, 1.76 mM Triton X-100, ATP (20.0 μM for JAK1 and JAK3 or 5 μM for JAK2) enzyme assays, 10.0 mM MgCl2, 1 mM EGTA and 0.01% Brij-35, 0.05 mM GFP-STAT1, 14 nM JAK1 enzyme for JAK1, 1.0 nM for JAK2 or 2.5 nM for JAK3 enzyme assays, and 4% DMSO and serial dilutions of test compound (diluted 1:3 from 20,000 to 1 nM). Following ATP/GFP-STAT1 addition, centrifuge the assay plates for 1 minute at 1000 revolutions per minute (RPM). Allow the plates to incubate at RT for 60 minutes and then add 12.5 μl of a stopping buffer containing 20 mM EDTA, 2 nM Terbium-anti-phosphorylated Signal Transducers and Activators of Transcription [phosphorylation Tyrosine 701 amino acid] […]

JAK1 = JAK1 (Homo sapiens, UniProt P23458); assay: AlphaScreen SureFire IL6-TF-1-JAK1 cell-based assay (pSTAT3 detection); design: endogenous in cells; host or cells: TF-1 cells; conditions: TF-1 cells, IL6 30 ng/mL; n=10; read-out: IC50, IL6-stimulated TF-1 JAK1 cell-based assay
Procedure: AlphaScreen SureFire Protocol […]-(p-Tyr705)-IL6-TF-1-JAK1 Cell-Based Assay
The JAK1 cell based assay described below is used to determine the JAK1 cellular potency of test compounds.
Starve TF-1 cells in DMEM medium with 0.5% […] and 1× Pen/Strep at 37° C. Plate 100K cells per well in BD 96 well black plates with clear bottoms. Maintain the plates at RT for 30-60 minutes before incubating overnight at 37° C. and 5% CO2. Count cells using Vi-Cell counter, using a cell suspension at […] and plated 100 μL/well in […] Biocoat plates (Catalog #354640).
Prepare compounds at 1:3 serial dilutions in DMSO and further dilute into the medium. Test compounds in a range of 10 point concentrations from 20,000 to 1 nM. Add diluted compound to corresponding cell plates. […]
Perform the following steps sequentially: make acceptor mix (activation buffer/reaction buffer/acceptor beads); transfer 4 μL lysate from 96 well plates to 384 well-Proxiplates; add 5 μL acceptor mix to 384 proxiplate plate(s) and seal plates with aluminum seal; shake 1-2 minutes on plate shaker; incubate plate at RT for 2 hr with gentle shaking; make donor mix (donor beads in dilution buffer); add 2 μL donor mix to assay plates; seal plates with aluminum seal; shake 1-2 minutes on plate shaker; incubate at RT for 2 hr with gentle shaking; read plate with Envision; protocol AlphaScreen Surefire 384.

Chain of JAK1 (P23458 whole entry): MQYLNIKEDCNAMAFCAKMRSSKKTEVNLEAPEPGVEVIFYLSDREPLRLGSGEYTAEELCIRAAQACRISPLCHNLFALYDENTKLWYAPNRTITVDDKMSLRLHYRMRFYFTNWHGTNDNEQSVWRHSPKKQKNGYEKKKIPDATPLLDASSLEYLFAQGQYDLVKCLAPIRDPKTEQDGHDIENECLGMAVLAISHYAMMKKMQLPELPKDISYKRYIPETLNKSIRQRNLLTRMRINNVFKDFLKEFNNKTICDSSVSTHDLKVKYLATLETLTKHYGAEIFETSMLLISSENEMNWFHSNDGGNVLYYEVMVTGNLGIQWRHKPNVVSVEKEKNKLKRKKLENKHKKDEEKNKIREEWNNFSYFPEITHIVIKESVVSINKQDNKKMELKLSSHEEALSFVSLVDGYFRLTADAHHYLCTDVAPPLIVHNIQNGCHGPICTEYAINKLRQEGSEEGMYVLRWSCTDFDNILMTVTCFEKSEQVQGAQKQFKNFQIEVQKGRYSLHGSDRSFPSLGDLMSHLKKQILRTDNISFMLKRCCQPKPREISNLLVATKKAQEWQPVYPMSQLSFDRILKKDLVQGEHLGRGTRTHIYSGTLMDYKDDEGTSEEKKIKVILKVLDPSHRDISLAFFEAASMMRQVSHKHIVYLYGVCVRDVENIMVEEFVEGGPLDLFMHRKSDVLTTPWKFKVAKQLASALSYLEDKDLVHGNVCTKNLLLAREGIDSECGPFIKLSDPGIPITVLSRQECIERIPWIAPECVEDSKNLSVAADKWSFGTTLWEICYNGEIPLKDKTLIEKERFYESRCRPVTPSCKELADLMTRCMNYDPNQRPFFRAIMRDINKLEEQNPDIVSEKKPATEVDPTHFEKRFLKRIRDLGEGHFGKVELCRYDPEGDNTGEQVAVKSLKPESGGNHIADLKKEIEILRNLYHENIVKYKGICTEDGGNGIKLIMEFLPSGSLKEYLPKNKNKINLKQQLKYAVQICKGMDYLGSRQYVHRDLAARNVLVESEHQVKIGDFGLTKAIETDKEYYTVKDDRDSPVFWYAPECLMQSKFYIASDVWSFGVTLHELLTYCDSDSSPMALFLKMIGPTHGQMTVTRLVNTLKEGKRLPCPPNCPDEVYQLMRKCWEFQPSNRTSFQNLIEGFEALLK

IC50 (JAK3): 1910 ± 786 nM
IC50 (JAK1): 87 nM
SMILES: Cc1cc(Nc2cc(O[C@H]3CC[C@@H](NC[C@@H](O)C(F)(F)F)CC3)cc3c2ncn3C)nn1C [Example 1, (2R)-3-{[cis-4-({4-[(1,5-Dimethyl-1H-pyrazol-3-yl)amino]-1-methyl-1H-benzimidazol-6-yl}oxy)cyclohexyl]amino}-1,1,1-trifluoropropan-2-ol]
